In patent EP0409527A2, “Cis-diamineplatinum complexes with methanediphosphonate and substituted methanediphosphonate ligands as antitumor agents” (ENGELHARD CORPORATION, priority 1989, dated 1991):
Where “and” joins values, the source holds several entries; their conditions need not be identical. Equal values may be shown once.

Legend:
L1210 leukemia = assay: L1210 screening (L1210 leukemia tumor model, survival); assay type: in vivo, Female CDF, mice; conditions: for %ILS: 25% ILS or greater indicates activity, maximum 200%
Protocol: (§1) The platinum-diphosphonate complexes were tested for antitumor activity using both Sarcoma 180 ascites and L1210 leukemia tumor models (see Tables 3 and 4).
Female CDF, mice (16-22g) were injected with a suspension of 1x10^6 tumor cells in 0.5 mL of […] on day zero. On day one, the mice received the test compound in 0.5 mL of the chosen medium (usually water). Six mice were used for each test dose and six doses were normally given. Normal controls (six mice) received tumor on day zero and 0.5 mL of test medium on day one. Positive controls (six mice) were given tumor on day zero and 8 mg/kg cisplatin in 0.5 mL of […] on say one. All compound doses were adjusted for the actual average weight of the mice involved. Testing was terminated at 3 time the normal control mean life span. The percent increase in lifespan (%ILS) was calculated as follows: %ILS = [(mean life span (test)/mean life span (control))-1] X 100% A 25% ILS or greater indicates activity in this screen. The maximum possible ILS is 200%. The positive control must have an ILS > 25% for the test to be considered valid.

Sarcoma 180 ascites = assay: S180a screening (Sarcoma 180 ascites tumor model, survival); assay type: in vivo, Female CFW mice; conditions: for %ILS: ILS > 50% indicates activity
Protocol: as §1
Female CFW mice (18-25g) were implanted with 2 x 10^6 cells ip on day zero. Compounds were administered in 0.5 mL water ip on say one. Groups of 6 mice were used for each test dose as well as controls as defined above. The test was run for twice the MST of the control group, with survivors counted as dying on that day. An ILS of > 50% indicates activity. The tumor line was maintained through weekly transfer of 4 x 10^6 cells in CFW mice.

[1] = system: L1210 murine tumor system; conditions: Nepras, Masters Thesis 1979; cited from earlier work
[2] = L1210, dose 10.00 mg/kg day one
[3] = L1210, dose 20.00 mg/kg day one
[4] = L1210, dose 40.00 mg/kg day one
[5] = L1210, dose 80.00 mg/kg day one
[6] = L1210, dose 160.00 mg/kg day one
[7] = L1210, dose 320.00 mg/kg day one
[8] = L1210, survivors/mice, dose 10.00 mg/kg
[9] = L1210, survivors/mice, dose 20.00 mg/kg
[10] = L1210, survivors/mice, dose 40.00 mg/kg
[11] = L1210, survivors/mice, dose 80.00 mg/kg
[12] = L1210, survivors/mice, dose 160.00 mg/kg
[13] = L1210, survivors/mice, dose 320.00 mg/kg
[14] = survivors/mice, dose 10.00 mg/kg ip
[15] = survivors/mice, dose 20.00 mg/kg ip
[16] = survivors/mice, dose 40.00 mg/kg ip
[17] = survivors/mice, dose 80.00 mg/kg ip
[18] = survivors/mice, dose 320.00 mg/kg ip
[19] = survivors/mice, dose 160.00 mg/kg ip

| Compound | %ILS (L1210 leukemia; [2]) | %ILS (L1210 leukemia; [3]) | %ILS (L1210 leukemia; [4]) | %ILS (L1210 leukemia; [5]) | %ILS (L1210 leukemia; [6]) | %ILS (L1210 leukemia; [7]) | SURV (L1210 leukemia; [8]) | SURV (L1210 leukemia; [9]) | SURV (L1210 leukemia; [10]) | SURV (L1210 leukemia; [11]) | SURV (L1210 leukemia; [12]) | SURV (L1210 leukemia; [13]) | %ILS (Sarcoma 180 ascites; dose 10.00 mg/kg ip day one) | %ILS (Sarcoma 180 ascites; dose 320.00 mg/kg ip day one) | SURV (Sarcoma 180 ascites; [14]) | SURV (Sarcoma 180 ascites; [15]) | SURV (Sarcoma 180 ascites; [16]) | SURV (Sarcoma 180 ascites; [17]) | SURV (Sarcoma 180 ascites; [18]) | other results |
| --- | --- | --- | --- | --- | --- | --- | --- | --- | --- | --- | --- | --- | --- | --- | --- | --- | --- | --- | --- | --- |
| CC(O)(P(=O)([O-])[O-])P(=O)([O-])[O-].NC1CCCCC1N.NC1CCCCC1N.[Pt+2].[Pt+2] [Example 4, [Pt2(R,R-dach)2(HEDP)]] | 8% | 3% | 24% | 28% | 40% | 72% | 0/ 6 | 0/ 6 | 0/ 6 | 0/ 6 | 0/ 6 | 0/ 6 | -7% | 75% | 0/ 6 | 0/ 6 | 0/ 6 | 0/ 6 | 4/ 6 | %ILS (Sarcoma 180 ascites; dose 20.00 mg/kg ip day one, 20 mg/kg): -10% and -4%; %ILS (Sarcoma 180 ascites; dose 160.00 mg/kg ip day one, 160 mg/kg): 95% and 77%; %ILS (Sarcoma 180 ascites; dose 256.00 mg/kg ip day one): 47%; SURV (Sarcoma 180 ascites; survivors/mice, dose 160.00 mg/kg ip, 160 mg/kg): 5/ 6 and 3/ 6; SURV (Sarcoma 180 ascites; survivors/mice, dose 256.00 mg/kg ip): 1/ 6 |
| CC(O)(P(=O)([O-])[O-])P(=O)([O-])[O-].NCCN.NCCN.[Pt+2].[Pt+2] [[Pt2(en)2(HEDP)]] |  |  |  |  |  |  |  |  |  |  |  |  |  |  |  |  |  |  |  | antitumor activity [1]: inactive |
| NCCN.NCCN.O=P([O-])([O-])CP(=O)([O-])[O-].[Pt+2].[Pt+2] [[Pt2(en)2(MDP)]] |  |  |  |  |  |  |  |  |  |  |  |  |  |  |  |  |  |  |  | antitumor activity [1]: inactive |
| N.N.[Cl][Pt][Cl] [cisplatin, reference compound] |  |  |  |  |  |  |  |  |  |  |  |  |  |  |  |  |  |  |  | POS CONT SURV (L1210 leukemia; L1210, survivors/mice, positive control of the respective experiment, 8 mg/kg cisplatin, 8 mg/kg): 3/ 6 and 4/ 6 and 0/ 6 and 1/ 6; POS CONT %ILS (Sarcoma 180 ascites; positive control of the respective experiment, 8 mg/kg cisplatin in saline, 8 mg/kg): 58% and 92% and 82% and 63%; POS CONT SURV (Sarcoma 180 ascites; survivors/mice, positive control of the respective experiment, 8 mg/kg cisplatin, 8 mg/kg): 2/ 5 and 4/ 6 and 3/ 6 and 1/ 6 |
| Na[Pt2(R,R-dach)2(PDP)] [Example 3] | 1% | 28% | 28% | 55% | 104% | 111% | 0/ 6 | 0/ 6 | 0/ 6 | 0/ 6 | 2/ 6 | 2/ 6 |  |  |  |  |  |  |  |  |
| Na[Pt2(en)2(PDP)] [Example 2] | 0% | -3% | 0% | 20% | 23% | 11% | 0/ 6 | 0/ 6 | 0/ 6 | 0/ 6 | 0/ 6 | 0/ 6 | -4% | 49% | 0/ 6 | 0/ 6 | 0/ 6 | 1/ 6 | 1/ 6 | %ILS (Sarcoma 180 ascites; dose 20.00 mg/kg ip day one): 5%; %ILS (Sarcoma 180 ascites; dose 40.00 mg/kg ip day one): 6%; %ILS (Sarcoma 180 ascites; dose 80.00 mg/kg ip day one): 27%; %ILS (Sarcoma 180 ascites; dose 160.00 mg/kg ip day one): 48%; SURV (Sarcoma 180 ascites; [19]): 1/ 6 |
| [Pt2(en)2(PDP-D-glucosamine)] [Example 5] | -8% | -15% | 10% | 4% | 13% | 16% |  | 0/ 6 | 0/ 6 | 0/ 6 | 0/ 6 | 0/ 6 | 0% | 28% | 0/ 6 | 0/ 6 | 0/ 6 | 0/ 6 | 0/ 5 | %ILS (Sarcoma 180 ascites; dose 20.00 mg/kg ip day one): -3%; %ILS (Sarcoma 180 ascites; dose 40.00 mg/kg ip day one): -5%; %ILS (Sarcoma 180 ascites; dose 80.00 mg/kg ip day one): 0%; %ILS (Sarcoma 180 ascites; dose 160.00 mg/kg ip day one): 0%; SURV (Sarcoma 180 ascites; [19]): 0/ 6 |
| [Pt2(en)2(PDP-hydrazide)] [Example 7] | -14% | 21% | -18% | -14% | 20% | 0% | 0/ 6 | 0/ 6 | 0/ 6 | 0/ 6 | 0/ 6 | 0/ 6 |  |  |  |  |  |  |  |  |
